# Tested on: human Burkitt lymphoma Raji cells
# Assay: Test Example 5: effect on cytotoxic activity of rituximab and complement, PI flow cytometry (FIG. 1)
# Format: cell-based
# Conditions: rituximab + 10% human normal serum (AB type), sample 1.0 mg/ml final, 1 hour
# Text: The lactoferrin hydrolysate mixture prepared in Preparation Example 1 was used as Sample A, and the lactoferrin hydrolyzed peptide (lactoferrin partial peptide) prepared in Preparation Example 2 was used as Sample B. Moreover, as control samples, commercially available bovine lactoferrin (Morinaga Milk Industry Co., Ltd.) was used as Control A, and protamine sulfate was used as Control B.
# Raji cells in the logarithmic growth phase were used as target cells. Raji cells collected by centrifugation of a cell suspension were suspended in fresh culture broth (RPMI 1640, 10% FCS), counted and then added to a 24-well plate in an amount of 1.0×10^5 cells/well. To each well, rituximab ([…]) and 1.0 mg/ml as a final concentration of Sample A, Sample B, Control A or Control B (or Medium [culture broth] instead of the sample) were added, and then human normal serum (AB type) was added at a final concentration of 10%. Then, the cells were cultured in a CO2 incubator for 1 hour, and PI (propidium iodide, 1 mg/ml) was added during the last 15 minutes of the culture. […] The Raji cells that died during the culture were counted by analyzing the suspension with a flow cytometer (FACScan) utilizing the fact that dead cells are positive in the nuclear staining with PI.
# In this test, the cytotoxic activity was calculated in accordance with the following equation. […]
substance,measurement,value
protamine sulfate [Control B],cytotoxic activity [number of dead cells (%)] relative to Medium (culture broth),such increase of the activity was not observed

# Reference: patent US7419667B2, “Drug for cancer therapy” (Morinaga Milk Industry Co. Ltd., priority 2004, dated 2008)
